In general, pIC50 refers to the negative decadic logarithm of the IC50, by convention in mol/L.

In US20200216439A1, “HETERO-1,5,6,7-TETRAHYDRO-4H-INDOL-4-ONES” (BAYER PHARMA AKTIENGESELLSCHAFT, priority 2015, published 2020) one finds IC50 data, which are given here for 28 compounds.

Each structure is given as a SMILES string. pIC50: −log10 of the molar value.

In the experiment the target is T1, catalytic domain of human Bub1 (amino acids 704-1085) (Homo sapiens, UniProt O43683).
T1 construct: catalytic domain of human Bub1 (amino acids 704-1085); His6 (N); made in house; host or cells: Hi5 insect cells
T1 sequence (O43683 704-1085): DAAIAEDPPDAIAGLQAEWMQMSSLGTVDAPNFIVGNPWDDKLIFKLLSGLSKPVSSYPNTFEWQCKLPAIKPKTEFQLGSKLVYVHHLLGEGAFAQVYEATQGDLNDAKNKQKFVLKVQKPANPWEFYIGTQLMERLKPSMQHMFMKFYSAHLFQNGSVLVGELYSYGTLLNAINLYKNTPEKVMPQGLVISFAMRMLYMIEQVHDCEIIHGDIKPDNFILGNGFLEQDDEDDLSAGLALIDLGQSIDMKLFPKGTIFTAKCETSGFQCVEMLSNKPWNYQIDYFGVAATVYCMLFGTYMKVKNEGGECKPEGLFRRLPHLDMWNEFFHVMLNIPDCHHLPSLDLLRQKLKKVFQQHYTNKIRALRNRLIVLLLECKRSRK
Kind of experiment: Bub1 kinase assay (TR-FRET). The conditions noted are these: TR-FRET; ATP 10 μM, peptide substrate 1 μM; 60 min at 22° C.; average or median if tested more than once; read-out: Inhibition of Bub1 kinase IC50. In kind it is biochemical. An outline of the steps:
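Eleven concentrations (0.1 nM–20 μM, duplicate) fitted by 4-parameter logistic for IC50. Read-out: EDTA-stopped TR-FRET (665/620 nm) detecting anti-phosphoserine binding to biotin-peptide (1 μM). Reaction used 10 μM ATP, 60 min at 22 °C, after 15 min compound preincubation with His-tagged human Bub1 704-1085.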
For orientation: In TR-FRET formats the signal depends on donor and acceptor labels being close together.
Consider `CC(=O)Nc1cc(-c2[nH]c3c(c2Nc2ccccc2)C(=O)CN(C(=O)CCC(F)(F)F)C3)ccn1` [Example 190, N-{4-[3-Anilino-4-oxo-6-(4,4,4-trifluorobutanoyl)-4,5,6,7-tetrahydro-1H-pyrrolo[2,3-c]pyridin-2-yl]pyridin-2-yl}acetamide], for which the pIC50 was 6.87.

`CCn1c2c(c(Nc3ccccc3)c1-c1ccncc1)C(=O)CN(S(C)(=O)=O)C2` [Example 65, 1-Ethyl-6-(methylsulfonyl)-3-(phenylamino)-2-(pyridin-4-yl)-1,5,6,7-tetrahydro-4H-pyrrolo[2,3-c]pyridin-4-one]: the pIC50 was 5.77.

In the case of `O=C1CN(C(=O)Nc2cccnc2)Cc2[nH]c(-c3ccncc3)c(Nc3ccccc3)c21` [Example 97, 4-Oxo-3-(phenylamino)-N-(pyridin-3-yl)-2-(pyridin-4-yl)-1,4,5,7-tetrahydro-6H-pyrrolo[2,3-c]pyridine-6-carboxamide], the pIC50 is 7.23.

Turning to `O=C(Nc1cc(-c2[nH]c3c(c2Nc2ccccc2)C(=O)COC3)ccn1)c1cscn1` [Example 49, N-{4-[4-Oxo-3-(phenylamino)-1,4,5,7-tetrahydropyrano[3,4-b]pyrrol-2-yl]pyridin-2-yl}-1,3-thiazole-4-carboxamide], the pIC50 is 7.29.

Take `O=C1CN(C(=O)CCO)Cc2[nH]c(-c3ccnc(NC(=O)[C@@H]4C[C@@H]4F)c3)c(Nc3ccccc3)c21` [Example 202, (1S,2S)-2-Fluoro-N-4-[6-(3-hydroxypropanoyl)-4-oxo-3-(phenylamino)-4,5,6,7-tetrahydro-1H-pyrrolo[2,3-c]pyridin-2-yl]pyridin-2-ylcyclopropanecarboxamide]: the pIC50 is 8.10.

Take `O=C1CN(C(=O)OCCF)Cc2[nH]c(-c3ccncc3)c(Nc3ccccc3)c21` [Example 79, 2-Fluoroethyl 4-oxo-3-(phenylamino)-2-(pyridin-4-yl)-1,4,5,7-tetrahydro-6H-pyrrolo[2,3-c]pyridine-6-carboxylate]: the negative-log IC50 (pIC50) was 8.10.

With `CC(=O)Nc1cc(-c2[nH]c3c(c2Nc2ccccc2)C(=O)CN(S(=O)(=O)C2CCOCC2)C3)ccn1` [Example 173, N-{4-[3-Anilino-4-oxo-6-(tetrahydro-2H-pyran-4-ylsulfonyl)-4,5,6,7-tetrahydro-1H-pyrrolo[2,3-c]pyridin-2-yl]pyridin-2-yl}acetamide], the pIC50 was 8.22.

In the case of `COCCOC(=O)N1CC(=O)c2c([nH]c(-c3ccncc3)c2Nc2ccccc2)C1` [Example 80, 2-Methoxyethyl 4-oxo-3-(phenylamino)-2-(pyridin-4-yl)-1,4,5,7-tetrahydro-6H-pyrrolo[2,3-c]pyridine-6-carboxylate], the negative logarithm of the IC50 (pIC50) is 7.96.

Consider `CNC(=O)N1CC(=O)c2c([nH]c(-c3ccnc(NC(=O)[C@@H]4C[C@@H]4F)c3)c2Nc2ccccc2)C1` [Example 206, 2-[2-([(1S,2S)-2-Fluorocyclopropyl]carbonylamino)pyridin-4-yl]-N-methyl-4-oxo-3-(phenylamino)-1,4,5,7-tetrahydro-6H-pyrrolo[2,3-c]pyridine-6-carboxamide], for which the pIC50 is 8.40.

With `COC(=O)N1CC(=O)c2c([nH]c(-c3ccnc(NC(=O)[C@@H]4C[C@H]4F)c3)c2Nc2ccccc2)C1` [Example 143, Methyl 3-anilino-2-[2-({[(1S,2R)-2-fluorocyclopropyl]carbonyl}amino)pyridin-4-yl]-4-oxo-1,4,5,7-tetrahydro-6H-pyrrolo[2,3-c]pyridine-6-carboxylate], the pIC50 was 8.22.

With `CC(C)OC(=O)N1CC(=O)c2c([nH]c(-c3ccnc(NC(=O)C(C)(C)F)c3)c2Nc2ccccc2)C1` [Example 155, Isopropyl 3-anilino-2-{2-[(2-fluoro-2-methylpropanoyl)amino]pyridin-4-yl}-4-oxo-1,4,5,7-tetrahydro-6H-pyrrolo[2,3-c]pyridine-6-carboxylate], the pIC50 is 7.22.

In the case of `COc1ccc(C(=O)Nc2cc(-c3c(Nc4ccccc4)c4c(n3C)CNCC4=O)ccn2)cc1F` [Example 287, 3-Fluoro-4-methoxy-N-4-[1-methyl-4-oxo-3-(phenylamino)-4,5,6,7-tetrahydro-1H-pyrrolo[2,3-c]pyridin-2-yl]pyridin-2-ylbenzamide], the negative logarithm of the IC50 (pIC50) was 5.69.

On to `CCN(CC)C(=O)N1CC(=O)c2c([nH]c(-c3ccnc(NC(C)=O)c3)c2Nc2ccccc2)C1` [Example 167, 2-(2-Acetamidopyridin-4-yl)-3-anilino-N,N-diethyl-4-oxo-1,4,5,7-tetrahydro-6H-pyrrolo[2,3-c]pyridine-6-carboxamide], for which the pIC50 was 8.22.

As to `O=C1CNCc2[nH]c(-c3ccnc(NC(=O)[C@@H]4C[C@H]4F)c3)c(Nc3ccccc3)c21` (relative stereo) [Example 142, rel-(1S,2R)—N-[4-(3-Anilino-4-oxo-4,5,6,7-tetrahydro-1H-pyrrolo[2,3-c]pyridin-2-yl)pyridin-2-yl]-2-fluorocyclopropanecarboxamide], the pIC50 is 7.12.

`COc1cnccc1-c1[nH]c2c(c1Nc1ccccc1)C(=O)CN(C(C)=O)C2` [Example 105, 6-Acetyl-2-(3-methoxypyridin-4-yl)-3-(phenylamino)-1,5,6,7-tetrahydro-4H-pyrrolo[2,3-c]pyridin-4-one]: the negative-log IC50 (pIC50) was 7.92.

On to `CC(C)OC(=O)N1CC(=O)c2c([nH]c(-c3ccncc3)c2Nc2ccccc2)C1` [Example 77, Propan-2-yl 4-oxo-3-(phenylamino)-2-(pyridin-4-yl)-1,4,5,7-tetrahydro-6H-pyrrolo[2,3-c]pyridine-6-carboxylate], for which the pIC50 was 7.96.

In the case of `CC(=O)Nc1cc(-c2[nH]c3c(c2Nc2ccccc2)C(=O)CN(C(=O)CC(C)(C)C)C3)ccn1` [Example 174, N-{4-[3-Anilino-6-(3,3-dimethylbutanoyl)-4-oxo-4,5,6,7-tetrahydro-1H-pyrrolo[2,3-c]pyridin-2-yl]pyridin-2-yl}acetamide], the pIC50 was 8.10.

Take `CS(=O)(=O)N1CC(=O)c2c([nH]c(-c3ccnc(NC(=O)C4(F)CC4)c3)c2Nc2ccccc2)C1` [Example 150, N-{4-[3-Anilino-6(methylsulfonyl)-4-4-oxo-4,5,6,7-tetrahydro-1H-pyrrolo[2,3-c]pyridin-2-yl]pyridin-2-yl}-1-fluorocyclopropanecarboxamide]: the pIC50 was 8.30.

As to `CC(=O)Nc1cc(-c2[nH]c3c(c2Nc2ccccc2)C(=O)CN(C(=O)c2cocn2)C3)ccn1` [Example 195, N-{4-[3-Anilino-6(1,3-oxazol-4-ylcarbonyl)-4-oxo-4,5,6,7-tetrahydro-1H-pyrrolo[2,3-c]pyridin-2-yl]pyridin-2-yl}acetamide], the pIC50 was 7.62.

For `CC(=O)Nc1cc(-c2[nH]c3c(c2Nc2ccc(C)cc2)C(=O)CN(C(=O)OC(C)(C)C)C3)ccn1` [Example 295, tert-Butyl 2-(2-acetamidopyridin-4-yl)-3-[(4-methylphenyl)amino]-4-oxo-1,4,5,7-tetrahydro-6H-pyrrolo[2,3-c]pyridine-6-carboxylate], the pIC50 is 6.44.

Take `O=C1COCc2[nH]c(-c3ccnc(NC(=O)C4CC4)c3)c(Nc3ccccc3)c21` [Example 35, N-{4-[4-Oxo-3-(phenylamino)-1,4,5,7-tetrahydropyrano[3,4-b]pyrrol-2-yl]pyridin-2-yl}cyclopropanecarboxamide]: the pIC50 is 7.26.

Turning to `CN(C)C(=O)N1CC(=O)c2c([nH]c(-c3ccncc3OCC(F)(F)F)c2Nc2ccccc2)C1` [Example 244, N,N-Dimethyl-4-oxo-3-(phenylamino)-2-[3-(2,2,2-trifluoroethoxy)pyridin-4-yl]-1,4,5,7-tetrahydro-6H-pyrrolo[2,3-c]pyridine-6-carboxamide], the pIC50 was 7.74.

With `COc1cnccc1-c1[nH]c2c(c1Nc1ccccc1)C(=O)CN(S(=O)(=O)C(F)F)C2` [Example 110, 6-[(Difluoromethyl)sulfonyl]-2-(3-methoxypyridin-4-yl)-3-(phenylamino)-1,5,6,7-tetrahydro-4H-pyrrolo[2,3-c]pyridin-4-one], the pIC50 was 8.22.

With `COCCOc1cnccc1-c1[nH]c2c(c1Nc1ccccc1)C(=O)CN(S(=O)(=O)N(C)C)C2` [Example 280, 2-[3-(2-Methoxyethoxy)pyridin-4-yl]-N,N-dimethyl-4-oxo-3-(phenylamino)-1,4,5,7-tetrahydro-6H-pyrrolo[2,3-c]pyridine-6-sulfonamide], the pIC50 is 8.22.

Regarding `CCNC(=O)N1CC(=O)c2c([nH]c(-c3ccnc(NC(=O)[C@@H]4C[C@@H]4F)c3)c2Nc2ccccc2)C1` [Example 208, N-Ethyl-2-[2-([(1S,2S)-2-fluorocyclopropyl]carbonylamino)pyridin-4-yl]-4-oxo-3-(phenylamino)-1,4,5,7-tetrahydro-6H-pyrrolo[2,3-c]pyridine-6-carboxamide], the pIC50 is 8.30.

`CC(C)(C)OC(=O)N1CC(=O)c2c([nH]c(-c3ccnc(NC(=O)[C@@H]4C[C@@H]4F)c3)c2Nc2ccccc2)C1` [Example 196, tert-Butyl 3-anilino-2-[2-({[(1S,2S)-2-fluorocyclopropyl]carbonyl}amino)pyridin-4-yl]-4-oxo-1,4,5,7-tetrahydro-6H-pyrrolo[2,3-c]pyridine-6-carboxylate]: the pIC50 was 8.15.

In the case of `COc1cc(C(=O)Nc2cc(-c3c(Nc4ccccc4)c4c(n3C)CN(C(=O)OC(C)(C)C)CC4=O)ccn2)ccc1F` [Example 256, tert-Butyl 2-2-[(4-fluoro-3-methoxybenzoyl)amino]pyridin-4-yl-1-methyl-4-oxo-3-(phenylamino)-1,4,5,7-tetrahydro-6H-pyrrolo[2,3-c]pyridine-6-carboxylate], the pIC50 is 6.03.

On to `Cn1c2c(c(Nc3ccccc3)c1-c1ccncc1)C(=O)CN(S(C)(=O)=O)C2` [Example 64, 1-Methyl-6-(methylsulfonyl)-3-(phenylamino)-2-(pyridin-4-yl)-1,5,6,7-tetrahydro-4H-pyrrolo[2,3-c]pyridin-4-one], for which the pIC50 is 5.85.
